Reference: patent US11559590B2, “Granzyme B directed imaging and therapy” (The General Hospital Corporation, priority 2016, dated 2023)
Like-named read-outs stand apart in the source and are kept apart here. Non-standard residues stand in square brackets, D forms with d. Residues, ends and D or L forms follow the SMILES beside them. Primed or numbered codes have the meaning given here. No end group written: not given here. *: point of attachment. X1 = O=C(O)CN1CCN(CC(=O)O)CC(Cc2ccc(NC(=S)*)cc2)N(CC(=O)O)CC1; PEG27′ = polyethylene glycol linker of 27 —(OCH2CH2)— units; Biotin = O=C1N[C@H]2[C@H](CS[C@H]2CCCCC(=O)*)N1; NOTA = O=C(O)CN1CCN(CC(=O)O)CCN(CC(=O)*)CC1; βAla = NCCC(=O)O

Tests used:
CT26 cells = test: Binding of ^68Ga-NOTA-GP to CT26 cells with or without pre-incubation with granzyme B; type: cell-based; conditions: 100 μCi/mL, pre-incubated with granzyme B (60 nM) or vehicle, 30 min
Experimental: CT26 cells were plated in 96 well plates and grown to 70% confluency. ^68Ga-NOTA-GP was diluted to 100 μCi/mL in 1% BSA plus RPMI buffer and either pre-incubated with granzyme B (60 nM) or vehicle prior to addition to wells. The peptide was incubated with cells for 30 min prior to washing and elution with 2M NaOH.

CT26 tumors [1] = test: Ex vivo tumor to blood ratio by gamma counter in CT26 tumor bearing mice; conditions: day 14, 1 h post-injection
Experimental: After confirming the ^68Ga-NOTA-GP bound to purified granzyme B and specifically accumulated in target cells, the in vivo tumor accumulation was investigated in CT26 tumor bearing mice using the same model used to generate the Western blot data from Example 2 (see FIG. 1). On day 14 post-inoculation, mice were injected with […] of ^68Ga-NOTA-GP and mice were sacrificed at 1 h following injection. Tumors and blood were collected from 7 mice that were treated with combination therapy (ant-PD-1 and CTLA-4). The tumors were grouped based on size as either responders (mass<[…]) or non-responders (mass≥[…]) The amount of radioactive ^68Ga-NOTA-GP in both the tumor and blood were quantified using a gamma counter and the adjusted based on mass and the ratio of injected dose per gram of tumor to blood (TBR) was plotted for tumors in each group.

[2] = Ex vivo bio-distribution at 1 h and 2 h post-injection; type: in vivo, mice; conditions: mouse, tumor, iv, 1 mCi, total radioactivity; for tissue uptake at 1 h: 1 h post-injection; for tissue uptake at 2 h: 2 h post-injection
Experimental: (§1) Following injection with ˜1 mCi of ^68Ga-NOTA-GP (see Example 1) via tail-vein mice were sacrificed at either one-hour or two-hour time-points. Mouse urine, blood, tumor, and vital organs were sampled, and radioactivity assessed on a gamma-counter.
(§2) Following imaging, mice were sacrificed and tumoral GZB expression quantified by Western blot. […] Tumoral uptake of treated tumors was measured at 1.15% ID/g at 1 h and 1.02% ID/g at 2 h in comparison to 0.70 and 0.55% ID/g in untreated control tumors, as shown in FIG. 7B.

CT26 tumors [3] = test: as above; type: in vivo, mice; conditions: 1 h and 2 h post-injection
Experimental: as §1, §2

granzyme B [4] = molecular target: T1, granzyme B (Mus musculus, UniProt P04187); test: Binding of ^68Ga-NOTA-GP to purified granzyme B adsorbed to plates vs BSA; parameters: purchased R&D systems; conditions: 1 h binding, bound tracer counted by gamma counter, 6 replicates
T1 sequence (P04187 21-247): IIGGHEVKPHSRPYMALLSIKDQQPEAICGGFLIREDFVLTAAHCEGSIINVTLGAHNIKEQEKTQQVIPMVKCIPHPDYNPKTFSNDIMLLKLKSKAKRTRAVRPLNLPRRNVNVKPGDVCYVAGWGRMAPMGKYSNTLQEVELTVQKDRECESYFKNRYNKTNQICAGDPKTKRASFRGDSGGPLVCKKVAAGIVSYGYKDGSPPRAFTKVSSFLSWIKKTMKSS
Experimental: Granzyme B was adsorbed to plates and the plates were blocked with non-fat milk. The ^68Ga-NOTA-GP was permitted to bind for 1 h, the wells washed, and bound ^68Ga-NOTA-GP recovered by incubation with 2N NaOH and counted by gamma counter. […] The bars in FIG. 4 represent the mean of 6 replicates±SD.

granzyme B [5] = molecular target: T1, granzyme B; type: in vivo, mice; parameters: from tissue; host or cells: CT26 (BALB/C) and MC38 syngeneic tumours in living mice; granzyme B from infiltrating host lymphocytes
Experimental: For imaging studies, mice were treated with intraperitoneal injection of either vehicle, 200 μg anti-PD-1 murine therapeutic antibody (αPD1), or both 200 μg αPD1 and 100 μg anti-CTLA-4 murine therapeutic antibody (αCTLA-4) on days 3, 6, and 9 following CT-26 tumor inoculation. 1×10^6 BP cells were diluted 1:1 with Matrigel and injected in the right shoulder of female C57BL/6 mice. Once tumors had reached 3-5 mm in diameter, mice were treated with daily oral gavage of vehicle or dabrafenib prepared in aqueous suspension with 0.5% hydroxypropylmethyl cellulose (HPMC) and 0.2% Tween. One day following initiation of BRAF inhibition, mice were additionally randomized to intraperitoneal injection with 200 μg αPD1 as specified. Mice were sacrificed on specified day either for Western blot and immunohistochemistry alone, or following imaging for correlative analysis. Mice were imaged on a GE Triumph PET/CT. Following CT acquisition, PET images were obtained for 15 min in 2 bed positions. Images were constructed using 3D-OSEM (4 iterations, 16 subsets) and corrected for scatter and randoms. The mean standard uptake value (SUVmean) for each tumor was calculated in a 3D region of interest auto-drawn around the tumor using a 30% isocontour threshold. Region of interests were also calculated for left ventricle, liver lung, muscle, and kidney. Images were post-processed using VivoQuant (InviCRO, Boston, Mass.). On day 14 post-inoculation, mice were injected with ˜37 MBq of purified ^68Ga-NOTA-GP intravenously and imaged at 1 h post-injection. […] The mean TBR of treated mice was calculated at 1.69±0.26, whereas the mean TBR of untreated mice was 0.93±0.11, a significant increase (83%, P<0.05) from untreated to treated mice, as shown in FIG. 11. ^68Ga-NOTA-GP uptake was observed across both treated and untreated tumors.

granzyme B [6] = molecular target: T1, granzyme B; test: Response prediction using granzyme B PET imaging across CT26 and MC38 models; type: in vivo, mice; parameters: from tissue; host or cells: CT26 (BALB/C) and MC38 syngeneic tumours in living mice; granzyme B from infiltrating host lymphocytes; conditions: CT26 and MC38, all therapies
From the text: As a measure of the accuracy of granzyme B PET (i.e., GZP PET) imaging-based response prediction across multiple tumor models and therapies described in Examples 9-11, classifications of uptake using TBR thresholds of 1.27 for CT26 tumors and 1.45 for MC38 tumors were utilized. […] This reflects an overall sensitivity and specificity of 93% and 89% respectively for the ability of ^68Ga-GZP PET to predict immunotherapy response.

tumor = conditions: mouse, in vivo
From the text: Both peptides were designed to test the effects of additional groups on the pharmacokinetics and tumor to background ratios in mice.

human granzyme B [7] = molecular target: T2, human granzyme B (Homo sapiens, UniProt P10144); test: Immunohistochemistry and immunofluorescence of human melanoma specimens with hGZP; type: binding; conditions: treated responder melanoma samples, IHC and immunofluorescence
T2 construct: from tissue; host or cells: formalin-fixed paraffin-embedded human melanoma biopsy sections
Experimental: Immunohistochemistry was performed on formalin-fixed paraffin-embedded sections following standard antigen retrieval in citrate buffer. Granzyme B expression was detected with either an anti-Granzyme B antibody (ab5049, Abcam) or a biotinylated and humanized version of GZP (hGZP, see Example 1A). Bound antibody was detected with either HRP-conjugated goat anti-rabbit antibody and reacted with DAB substrate for IHC staining or AlexaFluor 488 goat anti-rabbit or AlexaFluor 594 goat anti-rabbit antibodies (Life Technologies) for immunofluorescent visualization. Bound peptide was detected with either HRP-conjugated streptavidin (Abcam) followed by reaction with DAB substrate or Oregon green conjugated neutravidin (Life Technologies). […] Fluorescence quantification was performed using ImageJ software (National Institutes of Health, Bethesda, Md.).
(§3) A cohort of 9 human melanoma biopsy samples obtained from patients treated with anti-PD-1 checkpoint inhibitors (n=6 nivolumab and n=3 pembrolizumab), which were retrospectively correlated with response based on modified RECIST criteria. […] To quantify the degree and magnitude of difference between treated responders and nonresponders, quantitative fluorescent microscopy was performed. […]

human granzyme B [8] = molecular target: T3, human granzyme B (human, UniProt P10144 21-247); test: immunohistochemistry and immunofluorescence on human melanoma sections, compared with anti-granzyme B antibody
T3 construct: Endogenous protein in tissue sections, not purified; also called granzyme B in human melanoma tissue
Experimental: Immunohistochemistry was performed on formalin-fixed paraffin-embedded sections following standard antigen retrieval in citrate buffer. Granzyme B expression was detected with either an anti-Granzyme B antibody (ab5049, Abcam) or a biotinylated and humanized version of GZP (hGZP, see Example 1A). Bound antibody was detected with either HRP-conjugated goat anti-rabbit antibody and reacted with DAB substrate for IHC staining or AlexaFluor 488 goat anti-rabbit or AlexaFluor 594 goat anti-rabbit antibodies (Life Technologies) for immunofluorescent visualization.
Bound peptide was detected with either HRP-conjugated streptavidin (Abcam) followed by reaction with DAB substrate or Oregon green conjugated neutravidin (Life Technologies). […] Fluorescence quantification was performed using ImageJ software (National Institutes of Health, Bethesda, Md.).
as §3

[9] = molecular target: Granzyme B (purified, R&D Systems); test: in vitro granzyme B enzyme activity inhibition (cleavage of BOC-Ala-Ala-Asp-SBZL, absorbance at 405 nm)

T2 sequence (P10144 21-247): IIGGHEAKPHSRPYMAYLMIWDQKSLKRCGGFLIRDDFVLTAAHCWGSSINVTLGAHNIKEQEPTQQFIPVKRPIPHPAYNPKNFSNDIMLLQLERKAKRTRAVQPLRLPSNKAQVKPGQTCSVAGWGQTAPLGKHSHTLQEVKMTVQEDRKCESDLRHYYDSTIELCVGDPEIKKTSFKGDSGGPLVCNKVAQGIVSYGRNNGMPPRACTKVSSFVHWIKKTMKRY
T3 sequence (P10144 21-247 limits assumed): as the sequence (P10144 21-247) above

Molecule: CCC(C)C(NC(=O)CNC(=O)CNC(=O)CNC(=S)Nc1ccc(CC2CN(CC(=O)O)CCN(CC(=O)O)CCN2CC(=O)O)cc1)C(=O)NC(CCC(=O)O)C(=O)NC(Cc1ccccc1)C(=O)NC(C=O)CC(=O)O (stereo not drawn) [^68Ga-NOTA-GP, metal not drawn] (X1-GGGIEFD-aldehyde; configuration not given here)
- binding/uptake in CT26 cells (CT26 cells): binds granzyme B and is taken up specifically by cancer cells
- tumor to blood ratio (TBR), injected dose per gram, responders (CT26 tumors [1]; combination therapy (anti-PD-1 and CTLA-4) treated mice, responders (mass<0.8 mg)): 6.06-13.74
- tumor to blood ratio (TBR), injected dose per gram, non-responders (CT26 tumors [1]; combination therapy treated mice, non-responders (mass≥0.8 mg)): 0.95-2.48
- tissue uptake at 1 h ([2]; treated tumors, read-out: tumoral uptake, treated tumors, 1 h): 1.15 %ID/g
- tissue uptake at 2 h ([2]; treated tumors, read-out: tumoral uptake, treated tumors, 2 h): 1.02 %ID/g
- tissue uptake at 1 h ([2]; untreated control tumors, read-out: tumoral uptake, untreated control tumors, 1 h): 0.7 %ID/g
- tissue uptake at 2 h ([2]; untreated control tumors, read-out: tumoral uptake, untreated control tumors, 2 h): 0.55 %ID/g
- clearance (CT26 tumors [3]): rapid renal clearance
- binding to granzyme B compared to control protein (BSA) (granzyme B [4]): significantly (P<0.05) higher binding to granzyme B than to the control protein (BSA)
- correlation of TBR with tumoral GZB expression (Western blot) (granzyme B [5]; P<0.001): significant correlation between uptake and GZB expression
- increase of mean TBR from untreated to treated mice (granzyme B [5]; mouse, in vivo): 83%
- mean TBR (tumor to left ventricle) by PET, treated mice (granzyme B [5]; mouse, in vivo): 1.69±0.26
- mean TBR (tumor to left ventricle) by PET, untreated mice (granzyme B [5]; mouse, in vivo): 0.93±0.11
- overall sensitivity to predict immunotherapy response (granzyme B [6]; 25 of 27 responding mice high-uptake): 93%
- overall specificity to predict immunotherapy response (granzyme B [6]; 34 of 38 non-responding mice low-uptake): 89%

Molecule: NOTA-beta A-G-G-G-T-E-A-A-A-A-S-S-C-F-I-E-F-D-CHO ({NOTA}-[βAla]GGGTEAAAASSCFIEFD-aldehyde; SMILES CC[C@H](C)[C@H](NC(=O)[C@H](Cc1ccccc1)NC(=O)[C@H](CS)NC(=O)[C@H](CO)NC(=O)[C@H](CO)NC(=O)[C@H](C)NC(=O)[C@H](C)NC(=O)[C@H](C)NC(=O)[C@H](C)NC(=O)[C@H](CCC(=O)O)NC(=O)[C@@H](NC(=O)CNC(=O)CNC(=O)CNC(=O)CCNC(=O)CN1CCN(CC(=O)O)CCN(CC(=O)O)CC1)[C@@H](C)O)C(=O)N[C@@H](CCC(=O)O)C(=O)N[C@@H](Cc1ccccc1)C(=O)N[C@H](C=O)CC(=O)O) [GZPSERP]
- aggregation and liver uptake (tumor): significant aggregation and high liver uptake
- tumor to background ratios (tumor): much lower tumor to background ratios

Molecule: NOTA-beta A-PEG27-G-G-G-I-E-F-D ({NOTA-βAla-PEG27′}-GGGIEFD) [GZPPEG]
- tumor uptake kinetics (tumor): almost identical tumor uptake kinetics to NOTA-GP

Molecule: {Biotin-βAla}-GGGIEPD-aldehyde [hGZP]
- binding to granzyme B in human tissue compared with anti-granzyme B antibody (human granzyme B [7]): highly specific binding of hGZP to human granzyme B

B1: Biotin-beta-Ala-Gly-Gly-Gly-Ile-Glu-Pro-Asp-CHO (peptide)
peptide: Biotin-[βAla]GGGIEPD-aldehyde
SMILES: CC[C@H](C)[C@H](NC(=O)CNC(=O)CNC(=O)CNC(=O)CCNC(=O)CCCC[C@@H]1SC[C@@H]2NC(=O)N[C@@H]21)C(=O)N[C@@H](CCC(=O)O)C(=O)N1CCC[C@H]1C(=O)N[C@H](C=O)CC(=O)O
notes: also called hGZP; biotinylated human granzyme B peptide
- binding result (human granzyme B [8]): binds

B2: NOTA-beta-Ala-Gly-Gly-Ile-Glu-Phe-Asp-CHO (nonradioactive gallium-labeled) (peptide)
peptide: {NOTA}-[βAla]GGIEFD-aldehyde
modifications: also: NOTA complexed with nonradioactive gallium
- Ki [9]: 47 nM
